Laboratory results reported in paper PMC10882719 (Frontiers in Neuroscience, 2024).
Like-named read-outs stand apart in the source and are kept apart here.

Experiments:
Assay type in all cases: cell-based
168 GPCRs [1] = target: T1, 168 GPCRs (Homo sapiens, UniProt P37288); conditions: AVPR1a
T1 construct: host or cells: PathHunter cell lines

168 GPCRs [2] = target: T2, 168 GPCRs (Homo sapiens, UniProt P21730)
T2 construct: host or cells: PathHunter cell lines
T2 sequence (P21730 1-350): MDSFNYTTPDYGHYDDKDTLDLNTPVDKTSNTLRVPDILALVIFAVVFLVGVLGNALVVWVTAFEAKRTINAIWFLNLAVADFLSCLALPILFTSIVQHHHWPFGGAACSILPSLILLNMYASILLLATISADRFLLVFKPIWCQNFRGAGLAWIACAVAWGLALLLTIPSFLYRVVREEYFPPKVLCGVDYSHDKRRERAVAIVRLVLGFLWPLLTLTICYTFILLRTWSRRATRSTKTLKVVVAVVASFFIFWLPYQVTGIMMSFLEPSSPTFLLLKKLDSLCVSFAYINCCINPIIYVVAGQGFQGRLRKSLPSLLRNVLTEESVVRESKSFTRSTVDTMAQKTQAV

168 GPCRs [3] = target: T3, 168 GPCRs (Homo sapiens, UniProt P11229)
T3 construct: host or cells: PathHunter cell lines
T3 sequence (P11229 1-460): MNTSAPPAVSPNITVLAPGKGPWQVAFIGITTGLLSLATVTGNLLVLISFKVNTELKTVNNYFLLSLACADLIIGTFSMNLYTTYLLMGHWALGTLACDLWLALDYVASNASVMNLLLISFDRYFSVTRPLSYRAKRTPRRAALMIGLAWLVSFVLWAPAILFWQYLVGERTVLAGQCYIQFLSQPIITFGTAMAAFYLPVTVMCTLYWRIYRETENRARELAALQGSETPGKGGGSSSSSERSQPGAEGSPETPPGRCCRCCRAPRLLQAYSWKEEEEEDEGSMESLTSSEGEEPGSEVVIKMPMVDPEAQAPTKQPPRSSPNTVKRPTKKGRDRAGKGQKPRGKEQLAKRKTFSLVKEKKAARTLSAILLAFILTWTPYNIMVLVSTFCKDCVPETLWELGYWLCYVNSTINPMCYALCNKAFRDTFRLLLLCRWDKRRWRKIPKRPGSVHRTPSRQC

168 GPCRs [4] = target: T4, 168 GPCRs (Homo sapiens, UniProt P34998)
T4 construct: host or cells: PathHunter cell lines
T4 sequence (P34998 24-415): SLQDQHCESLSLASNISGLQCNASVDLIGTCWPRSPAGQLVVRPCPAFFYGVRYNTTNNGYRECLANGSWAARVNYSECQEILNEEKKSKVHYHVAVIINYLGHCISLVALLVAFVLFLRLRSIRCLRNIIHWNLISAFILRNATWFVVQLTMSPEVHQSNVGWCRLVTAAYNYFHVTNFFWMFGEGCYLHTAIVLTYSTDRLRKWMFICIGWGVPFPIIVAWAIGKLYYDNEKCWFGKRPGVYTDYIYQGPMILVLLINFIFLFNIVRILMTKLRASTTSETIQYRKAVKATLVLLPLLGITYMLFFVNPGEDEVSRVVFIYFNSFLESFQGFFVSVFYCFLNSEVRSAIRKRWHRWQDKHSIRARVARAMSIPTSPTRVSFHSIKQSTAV

168 GPCRs [5] = target: T5, 168 GPCRs (Homo sapiens, UniProt P35368); conditions: ADRA1B
T5 construct: host or cells: PathHunter cell lines
T5 sequence (P35368 1-520): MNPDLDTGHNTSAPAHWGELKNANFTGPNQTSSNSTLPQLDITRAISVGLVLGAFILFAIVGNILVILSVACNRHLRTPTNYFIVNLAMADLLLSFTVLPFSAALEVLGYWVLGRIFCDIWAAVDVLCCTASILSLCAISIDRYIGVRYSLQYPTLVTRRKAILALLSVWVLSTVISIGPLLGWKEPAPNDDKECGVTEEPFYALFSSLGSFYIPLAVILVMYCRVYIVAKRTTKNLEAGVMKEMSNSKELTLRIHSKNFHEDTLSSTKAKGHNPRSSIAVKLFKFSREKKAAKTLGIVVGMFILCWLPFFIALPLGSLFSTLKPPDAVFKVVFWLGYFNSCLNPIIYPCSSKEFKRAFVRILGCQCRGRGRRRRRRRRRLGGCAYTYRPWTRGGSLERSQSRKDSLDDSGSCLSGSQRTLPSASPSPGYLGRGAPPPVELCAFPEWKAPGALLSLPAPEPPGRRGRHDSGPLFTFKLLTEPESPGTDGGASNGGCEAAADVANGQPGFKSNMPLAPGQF

168 GPCRs [6] = target: T6, 168 GPCRs (Homo sapiens, UniProt P35462)
T6 construct: host or cells: PathHunter cell lines
T6 sequence (P35462 whole entry): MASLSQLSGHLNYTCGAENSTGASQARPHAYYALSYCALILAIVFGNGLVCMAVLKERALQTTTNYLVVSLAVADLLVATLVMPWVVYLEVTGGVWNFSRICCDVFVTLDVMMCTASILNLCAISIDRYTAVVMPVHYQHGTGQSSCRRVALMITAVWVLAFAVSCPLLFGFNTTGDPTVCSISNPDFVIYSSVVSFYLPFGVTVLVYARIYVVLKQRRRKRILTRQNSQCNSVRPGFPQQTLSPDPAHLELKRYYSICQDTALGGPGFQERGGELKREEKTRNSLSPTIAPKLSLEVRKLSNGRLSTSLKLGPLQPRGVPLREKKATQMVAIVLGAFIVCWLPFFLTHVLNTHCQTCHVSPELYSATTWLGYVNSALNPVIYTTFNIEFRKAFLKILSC

168 GPCRs [7] = target: T7, 168 GPCRs (Homo sapiens, UniProt P48039); conditions: MTNR1A
T7 construct: host or cells: PathHunter cell lines
T7 sequence (P48039 whole entry): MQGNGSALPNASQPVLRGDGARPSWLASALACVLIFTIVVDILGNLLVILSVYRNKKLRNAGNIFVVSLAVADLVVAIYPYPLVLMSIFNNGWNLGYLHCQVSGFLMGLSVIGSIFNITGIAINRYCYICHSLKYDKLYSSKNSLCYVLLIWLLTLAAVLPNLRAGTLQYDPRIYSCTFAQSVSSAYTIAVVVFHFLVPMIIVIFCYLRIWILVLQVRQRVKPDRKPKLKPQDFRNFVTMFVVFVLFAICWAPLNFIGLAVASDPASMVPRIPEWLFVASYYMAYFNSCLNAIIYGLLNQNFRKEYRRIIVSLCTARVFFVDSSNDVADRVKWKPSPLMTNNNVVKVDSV

T1 sequence (P37288 whole entry): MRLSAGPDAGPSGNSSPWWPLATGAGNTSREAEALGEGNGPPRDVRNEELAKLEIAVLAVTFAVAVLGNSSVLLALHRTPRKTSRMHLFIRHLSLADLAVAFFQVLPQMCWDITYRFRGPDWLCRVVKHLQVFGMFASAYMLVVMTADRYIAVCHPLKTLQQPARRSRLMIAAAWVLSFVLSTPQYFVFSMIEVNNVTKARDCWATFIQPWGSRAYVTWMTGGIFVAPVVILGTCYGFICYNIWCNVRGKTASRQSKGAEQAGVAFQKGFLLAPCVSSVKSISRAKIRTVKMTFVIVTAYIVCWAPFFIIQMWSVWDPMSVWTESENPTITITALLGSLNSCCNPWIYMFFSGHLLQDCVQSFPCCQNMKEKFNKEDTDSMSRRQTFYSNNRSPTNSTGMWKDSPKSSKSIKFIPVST

| Structure (SMILES) | % Agonist Activity (168 GPCRs [1]; 1 uM) | % Antagonist Activity (168 GPCRs [1]; 1 uM) | % Agonist Activity (168 GPCRs [1]; 10 uM) | % Antagonist Activity (168 GPCRs [1]; 10 uM) | % Agonist Activity (168 GPCRs [2]; C5aR1, 1 uM) | % Antagonist Activity (168 GPCRs [2]; C5aR1, 1 uM) | % Agonist Activity (168 GPCRs [2]; C5aR1, 10 uM) | % Antagonist Activity (168 GPCRs [2]; C5aR1, 10 uM) | % Agonist Activity (168 GPCRs [3]; CHRM1, 1 uM) | % Antagonist Activity (168 GPCRs [3]; CHRM1, 1 uM) | % Agonist Activity (168 GPCRs [3]; CHRM1, 10 uM) | % Antagonist Activity (168 GPCRs [3]; CHRM1, 10 uM) | % Agonist Activity (168 GPCRs [4]; CRHR1, 1 uM) | % Antagonist Activity (168 GPCRs [4]; CRHR1, 1 uM) | % Agonist Activity (168 GPCRs [4]; CRHR1, 10 uM) | % Antagonist Activity (168 GPCRs [4]; CRHR1, 10 uM) | % Agonist Activity (168 GPCRs [5]; 1 uM) | % Antagonist Activity (168 GPCRs [5]; 1 uM) | % Agonist Activity (168 GPCRs [5]; 10 uM) | % Antagonist Activity (168 GPCRs [5]; 10 uM) | further results |
| --- | --- | --- | --- | --- | --- | --- | --- | --- | --- | --- | --- | --- | --- | --- | --- | --- | --- | --- | --- | --- | --- |
| CNC(C)C(=O)c1ccc2c(c1)OCO2 (centres unmarked) [methylone] | -0.6% | -3% | -0.5% | 2.8% | -1% | 8.9% | -1.3% | 5% | -9.1% | 15.8% | -8.5% | 2% | 1.4% | 1.3% | 1.1% | 0.6% | -3.3% | 17.9% | -2.9% | 20.6% | % Agonist Activity (168 GPCRs [6]; DRD3, 1 uM): 2.2%; % Antagonist Activity (168 GPCRs [6]; DRD3, 1 uM): -12%; % Agonist Activity (168 GPCRs [6]; DRD3, 10 uM): 2.3%; % Antagonist Activity (168 GPCRs [6]; DRD3, 10 uM): -17.8%; % Agonist Activity (168 GPCRs [7]; 1 uM): -12.3%; % Antagonist Activity (168 GPCRs [7]; 1 uM): 30.8%; % Agonist Activity (168 GPCRs [7]; 10 uM): -11.7%; % Antagonist Activity (168 GPCRs [7]; 10 uM): 7.8% |
| CNC(C)Cc1ccc2c(c1)OCO2 (centres unmarked) [MDMA, 3,4-Methylenedioxy methamphetamine, reference compound] | -0.2% | -3.6% | -0.4% | 4.5% | -1.1% | -5.5% | -1.1% | -4.3% | 0.2% | 12.1% | 0.7% | 0.1% | 0.7% | -1.7% | 0.2% | 0.2% | -1.6% | 18.7% | -1.6% | 35.1% | % Agonist Activity (168 GPCRs [6]; DRD3, 1 uM): 7.1%; % Antagonist Activity (168 GPCRs [6]; DRD3, 1 uM): 9.6%; % Agonist Activity (168 GPCRs [6]; DRD3, 10 uM): 7.3%; % Antagonist Activity (168 GPCRs [6]; DRD3, 10 uM): 10.6%; % Agonist Activity (168 GPCRs [7]; 1 uM): -9.2%; % Antagonist Activity (168 GPCRs [7]; 1 uM): 18.4%; % Agonist Activity (168 GPCRs [7]; 10 uM): -9.6%; % Antagonist Activity (168 GPCRs [7]; 10 uM): 17.7% |
